From US20120115845A1, “THERAPEUTIC AGENTS” (priority 2007, published 2012)

What was measured:
human GHS receptor [1] = target: T1, human GHS receptor (Homo sapiens, UniProt Q92847); experiment: h bind IC50 (binding assay, Table 1); details: human receptor; Table 1
human GHS receptor [2] = target: T1, human GHS receptor; experiment: Ghrelin IP1 agonist assay (IP1 HTRF); type: cell-based; design: expressed in transfected cells; host or cells: HEK293s; details: for Emax: 2 h, agonist effect as % maximal effect of GHRP-6 (5 μM), read-out: h IP1 ag %; for EC50: HEK293s cells stably expressing human GHS receptor, 2 hours at 37° C., read-out: h IP1 ag EC50
Experimental: In HEK293s cells stably expressing human GHS receptor (In-house), agonist activity was assessed by measuring intracellular myo-Inositol 1 phosphate (IP1) using the IP1 HTRF assay kit (Cisbio International).
Cells were harvested using accutase (Sigma), spun down at 1000 rpm for 5 minutes and resuspended in stimulation buffer (as above) containing 0.02% fatty acid free BSA at a density of 1.43E6cells/ml.
Agonist effect of the compound was expressed as % maximal effect of GHRP-6 (5 μM: Bachem). Sigmoidal curves were fitted by Origin 7.5 Client and EC50 values determined.

T1 sequence (Q92847 whole entry): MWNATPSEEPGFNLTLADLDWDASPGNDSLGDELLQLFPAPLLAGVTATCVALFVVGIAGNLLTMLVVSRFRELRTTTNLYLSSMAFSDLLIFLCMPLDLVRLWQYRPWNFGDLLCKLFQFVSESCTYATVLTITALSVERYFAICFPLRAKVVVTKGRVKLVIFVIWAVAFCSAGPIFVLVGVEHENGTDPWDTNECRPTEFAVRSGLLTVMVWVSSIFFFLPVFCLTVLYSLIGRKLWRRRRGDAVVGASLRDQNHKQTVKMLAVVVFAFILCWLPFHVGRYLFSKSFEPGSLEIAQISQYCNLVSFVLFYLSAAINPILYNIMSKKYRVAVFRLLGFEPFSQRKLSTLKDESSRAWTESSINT

In the case of `CC1CCCCN1CCS(=O)(=O)c1ccc2nc(NC(=O)NC(=O)c3ccccc3Cl)sc2c1` (stereo not drawn) [Example 27, 2-Chloro-N-[[6-[2-(2-methyl-1-piperidyl)ethylsulfonyl]benzothiazol-2-yl]carbamoyl]benzamide], the IC50 (human GHS receptor [1]) is reported as 0.115 µM, the Emax (human GHS receptor [2]) is reported as 46.7% and the EC50 (human GHS receptor [2]) is reported as 0.0231 µM.

`CC(C)CNCCS(=O)(=O)c1ccc2nc(NC(=O)NC(=O)c3ccccc3Cl)sc2c1` [Example 28, 2-Chloro-N-[[6-[2-(2-methylpropylamino)ethylsulfonyl]benzothiazol-2-yl]carbamoyl]benzamide] showed an IC50 (human GHS receptor [1]) of 0.043 µM, an Emax (human GHS receptor [2]) of 44.6% and an EC50 (human GHS receptor [2]) of 0.0337 µM.

Molecule `O=C(NC(=O)c1ccccc1Cl)Nc1nc2ccc(S(=O)(=O)CCN3CCCOCC3)cc2s1` [Example 30, 2-Chloro-N-[[6-[2-(1,4-oxazepan-4-yl)ethylsulfonyl]benzothiazol-2-yl]carbamoyl]benzamide] has an IC50 (human GHS receptor [1]) of 0.251 µM, an Emax (human GHS receptor [2]) of 23.8% and an EC50 (human GHS receptor [2]) of 0.0392 µM.

Molecule `O=C(NC(=O)c1ccccc1Cl)Nc1nc2ccc(S(=O)(=O)CCN3CC[C@@H](F)C3)cc2s1` [Example 32, 2-Chloro-N-[[6-[2-[(3R)-3-fluoropyrrolidin-1-yl]ethylsulfonyl]benzothiazol-2-yl]carbamoyl]benzamide] has an IC50 (human GHS receptor [1]) of 0.4 µM, an Emax (human GHS receptor [2]) of 28% and an EC50 (human GHS receptor [2]) of 0.309 µM.

With `O=C(NC(=O)c1ccccc1Cl)Nc1nc2ccc(S(=O)(=O)CCN3CCCCC3)cc2s1` [Example 33, 2-Chloro-N-[[6-[2-(1-piperidyl)ethylsulfonyl]benzothiazol-2-yl]carbamoyl]benzamide] the IC50 (human GHS receptor [1]) was 0.0885 µM, the Emax (human GHS receptor [2]) was 41.5% and the EC50 (human GHS receptor [2]) was 0.0249 µM.

`O=C(NC(=O)c1ccccc1Cl)Nc1nc2ccc(S(=O)(=O)CCNCC3CC3)cc2s1` [Example 34, 2-Chloro-N-[[6-[2-(cyclopropylmethylamino)ethylsulfonyl]benzothiazol-2-yl]carbamoyl]benzamide] showed an IC50 (human GHS receptor [1]) of 0.0993 µM, an Emax (human GHS receptor [2]) of 46.7% and an EC50 (human GHS receptor [2]) of 0.0111 µM.

Work on `O=C(NC(=O)c1ccccc1Cl)Nc1nc2ccc(S(=O)(=O)CCNC3CC4CCC3C4)cc2s1` (stereo not drawn) [Example 35, 2-Chloro-N-[[6-[2-(norbornan-2-ylamino)ethylsulfonyl]benzothiazol-2-yl]carbamoyl]benzamide] yielded an IC50 (human GHS receptor [1]) of 0.0715 µM, an Emax (human GHS receptor [2]) of 56.1% and an EC50 (human GHS receptor [2]) of 0.0104 µM.

Molecule `COCC1CCCN1CCS(=O)(=O)c1ccc2nc(NC(=O)NC(=O)c3ccccc3Cl)sc2c1` (stereo not drawn) [Example 36, 2-Chloro-N-[[6-[2-[2-(methoxymethyl)pyrrolidin-1-yl]ethylsulfonyl]benzothiazol-2-yl]carbamoyl]benzamide] has an IC50 (human GHS receptor [1]) of 0.305 µM, an Emax (human GHS receptor [2]) of 34.3% and an EC50 (human GHS receptor [2]) of 0.00955 µM.

`O=C(NC(=O)c1ccccc1Cl)Nc1nc2ccc(S(=O)(=O)CCN3C[C@@H]4C[C@H]3CO4)cc2s1` [Example 37, 2-Chloro-N-[[6-[2-[(1S,4S)-3-oxa-6-azabicyclo[2.2.1]hept-6-yl]ethylsulfonyl]benzothiazol-2-yl]carbamoyl]benzamide] showed an IC50 (human GHS receptor [1]) of 0.234 µM, an Emax (human GHS receptor [2]) of 24% and an EC50 (human GHS receptor [2]) of 0.0611 µM.

`CC(C)OCCNCCS(=O)(=O)c1ccc2nc(NC(=O)NC(=O)c3ccccc3Cl)sc2c1` [Example 38, 2-Chloro-N-[[6-[2-(2-propan-2-yloxyethylamino)ethylsulfonyl]benzothiazol-2-yl]carbamoyl]benzamide] was tested, and the IC50 (human GHS receptor [1]) was 0.179 µM, the Emax (human GHS receptor [2]) was 40% and the EC50 (human GHS receptor [2]) was 0.0147 µM.

For `O=C(NC(=O)c1ccccc1Cl)Nc1nc2ccc(S(=O)(=O)CCO)cc2s1` [Example 41, 2-Chloro-N-[[6-(2-hydroxyethylsulfonyl)benzothiazol-2-yl]carbamoyl]benzamide], the IC50 (human GHS receptor [1]) was 0.535 µM, the Emax (human GHS receptor [2]) was 18.1% and the EC50 (human GHS receptor [2]) was 0.0958 µM.

For `CN(C)CCOCCS(=O)(=O)c1ccc2nc(NC(=O)NC(=O)c3ccccc3Cl)sc2c1` [Example 43, 2-Chloro-N-[[6-[2-(2-dimethylaminoethoxy)ethylsulfonyl]benzothiazol-2-yl]carbamoyl]benzamide], the IC50 (human GHS receptor [1]) was 0.0517 µM, the Emax (human GHS receptor [2]) was 46% and the EC50 (human GHS receptor [2]) was 0.0422 µM.

Work on `O=C(NC(=O)c1ccccc1Cl)Nc1nc2ccc(S(=O)(=O)C3CCNC3)cc2s1` (stereo not drawn) [Example 44, 2-Chloro-N-[(6-pyrrolidin-3-ylsulfonylbenzothiazol-2-yl)carbamoyl]benzamide] yielded an IC50 (human GHS receptor [1]) of 0.0182 µM, an Emax (human GHS receptor [2]) of 49% and an EC50 (human GHS receptor [2]) of 0.00573 µM.

With `CS(=O)(=O)c1ccc2nc(NC(=O)NC(=O)c3cc(-c4ccccn4)ccc3Cl)sc2c1` [Example 45, 2-Chloro-5-(pyridin-2-yl)-N-(6-(methylsulfonyl)benzothiazol-2-ylcarbamoyl)benzamide] the IC50 (human GHS receptor [1]) was 0.0214 µM, the Emax (human GHS receptor [2]) was 0.946% and the EC50 (human GHS receptor [2]) was ≥ 25 µM.

`CS(=O)(=O)c1ccc2nc(NC(=O)NC(=O)c3cc(-n4cccn4)ccc3Cl)sc2c1` [Example 46, 2-Chloro-5-(pyrazol-1-yl)-N-(6-(methylsulfonyl)benzothiazol-2-ylcarbamoyl)benzamide] gave an IC50 (human GHS receptor [1]) of 0.012 µM, an Emax (human GHS receptor [2]) of 0.5% and an EC50 (human GHS receptor [2]) of 8.24 µM.

For `CS(=O)(=O)c1ccc2nc(NC(=O)NC(=O)c3cc(-n4ccnn4)ccc3Cl)sc2c1` [Example 47, 2-Chloro-5-[1,2,3]triazol-1-yl-N-(6-(methylsulfonyl)benzothiazol-2-ylcarbamoyl)benzamide], the IC50 (human GHS receptor [1]) was 0.0816 µM, the Emax (human GHS receptor [2]) was 0% and the EC50 (human GHS receptor [2]) was ≥ 25 µM.

With `CS(=O)(=O)c1ccc2nc(NC(=O)NC(=O)c3cc(N4CCCC4)ccc3Cl)sc2c1` [Example 48, 2-Chloro-5-(1-pyrrolidinyl)-N-(6-(methylsulfonyl)benzothiazol-2-ylcarbamoyl)benzamide] the IC50 (human GHS receptor [1]) was 0.0013 µM, the Emax (human GHS receptor [2]) was 0.32% and the EC50 (human GHS receptor [2]) was ≥ 25 µM.

With `CS(=O)(=O)c1ccc2nc(NC(=O)NC(=O)c3cc(C4CC4)ccc3Cl)sc2c1` [Example 49, 2-Chloro-5-cyclopropyl-N-(6-(methylsulfonyl)benzothiazol-2-ylcarbamoyl)benzamide] the IC50 (human GHS receptor [1]) was 0.0129 µM, the Emax (human GHS receptor [2]) was 0% and the EC50 (human GHS receptor [2]) was ≥ 25 µM.

For `CS(=O)(=O)c1ccc2nc(NC(=O)NC(=O)c3cc(N4CC=CC4)ccc3Cl)sc2c1` [Example 50, 2-Chloro-5-(2,5-dihydro-pyrrol-1-yl)-N-(6-(methylsulfonyl)benzothiazol-2-ylcarbamoyl)benzamide], the IC50 (human GHS receptor [1]) was 0.001 µM, the Emax (human GHS receptor [2]) was 0% and the EC50 (human GHS receptor [2]) was ≥ 25 µM.

Molecule `CS(=O)(=O)c1ccc2nc(NC(=O)NC(=O)c3cc(OC4CCCC4)ccc3Cl)sc2c1` [Example 51, 2-Chloro-5-cyclopentyloxy-N-(6-(methylsulfonyl)benzothiazol-2-ylcarbamoyl)benzamide] has an IC50 (human GHS receptor [1]) of 0.0142 µM, an Emax (human GHS receptor [2]) of 1% and an EC50 (human GHS receptor [2]) of 0.016 µM.

For `CS(=O)(=O)c1ccc2nc(NC(=O)NC(=O)c3cc(C4CCCC4)ccc3Cl)sc2c1` [Example 52, 2-Chloro-5-cyclopentyl-N-(6-(methylsulfonyl)benzothiazol-2-ylcarbamoyl)benzamide], the IC50 (human GHS receptor [1]) was 0.0037 µM, the Emax (human GHS receptor [2]) was 0% and the EC50 (human GHS receptor [2]) was ≥ 25 µM.

With `CCOc1ccc(Cl)c(C(=O)NC(=O)Nc2nc3ccc(S(C)(=O)=O)cc3s2)c1` [Example 53, 2-Chloro-5-ethoxy-N-(6-(methylsulfonyl)benzothiazol-2-ylcarbamoyl)benzamide] the IC50 (human GHS receptor [1]) was 0.01 µM, the Emax (human GHS receptor [2]) was 0% and the EC50 (human GHS receptor [2]) was ≥ 25 µM.

`CS(=O)(=O)c1ccc2nc(NC(=O)NC(=O)c3cc(N4CCOCC4)ccc3Cl)sc2c1` [Example 54, 2-Chloro-N-(6-(methylsulfonyl)benzothiazol-2-ylcarbamoyl)-5-morpholin-4-yl benzamide] was tested, and the IC50 (human GHS receptor [1]) was 0.0101 µM, the Emax (human GHS receptor [2]) was 0.0527% and the EC50 (human GHS receptor [2]) was ≥ 25 µM.

`Cc1ccnn1-c1ccc(Cl)c(C(=O)NC(=O)Nc2nc3ccc(S(C)(=O)=O)cc3s2)c1` [Example 55, 2-Chloro-5-(5-methyl-1H-pyrazol-1-yl)-N-(6-(methylsulfonyl)benzothiazol-2-ylcarbamoyl)benzamide] showed an IC50 (human GHS receptor [1]) of 0.0231 µM, an Emax (human GHS receptor [2]) of 48.9% and an EC50 (human GHS receptor [2]) of 0.0057 µM.

With `Cc1ccn(-c2ccc(Cl)c(C(=O)NC(=O)Nc3nc4ccc(S(C)(=O)=O)cc4s3)c2)n1` [Example 56, 2-Chloro-5-(3-methyl-1H-pyrazol-1-yl)-N-(6-(methylsulfonyl)benzothiazol-2-ylcarbamoyl)benzamide] the IC50 (human GHS receptor [1]) was 0.0101 µM, the Emax (human GHS receptor [2]) was 10.8% and the EC50 (human GHS receptor [2]) was ≥ 25 µM.

With `CS(=O)(=O)c1ccc2nc(NC(=O)NC(=O)c3cc(-c4ncccn4)ccc3Cl)sc2c1` [Example 57, 2-Chloro-N-(6-(methylsulfonyl)benzothiazol-2-ylcarbamoyl)-5-(pyrimidin-2-yl)benzamide] the IC50 (human GHS receptor [1]) was 0.162 µM, the Emax (human GHS receptor [2]) was 0% and the EC50 (human GHS receptor [2]) was > 25 µM.

Work on `CS(=O)(=O)Oc1ccc(Cl)c(C(=O)NC(=O)Nc2nc3ccc(S(C)(=O)=O)cc3s2)c1` [Example 58, 4-Chloro-3-(6-(methylsulfonyl)benzothiazol-2-ylcarbamoylcarbamoyl)phenyl methanesulfonate] yielded an IC50 (human GHS receptor [1]) of 1.31 µM, an Emax (human GHS receptor [2]) of 8.82% and an EC50 (human GHS receptor [2]) of 3.01 µM.

In the case of `CN1CCN(c2ccc(Cl)c(C(=O)NC(=O)Nc3nc4ccc(S(C)(=O)=O)cc4s3)c2)CC1` [Example 59, 2-Chloro-5-(4-methylpiperazin-1-yl)-N-(6-(methylsulfonyl)benzothiazol-2-ylcarbamoyl)benzamide], the IC50 (human GHS receptor [1]) is reported as 0.207 µM, the Emax (human GHS receptor [2]) is reported as 0.377% and the EC50 (human GHS receptor [2]) is reported as > 9.3 µM.

In the case of `CN(C)C1CCN(c2ccc(Cl)c(C(=O)NC(=O)Nc3nc4ccc(S(C)(=O)=O)cc4s3)c2)C1` (stereo not drawn) [Example 60, 2-Chloro-5-(3-(dimethylamino)pyrrolidin-1-yl)-N-(6-(methylsulfonyl)benzothiazol-2-ylcarbamoyl)benzamide], the IC50 (human GHS receptor [1]) is reported as 0.033 µM, the Emax (human GHS receptor [2]) is reported as 0.647% and the EC50 (human GHS receptor [2]) is reported as > 25 µM.

`C#Cc1ccc(Cl)c(C(=O)NC(=O)Nc2nc3ccc(S(C)(=O)=O)cc3s2)c1` [Example 61, 2-Chloro-5-ethynyl-N-(6-(methylsulfonyl)benzothiazol-2-ylcarbamoyl)benzamide] was tested, and the IC50 (human GHS receptor [1]) was 0.161 µM, the Emax (human GHS receptor [2]) was 0.276% and the EC50 (human GHS receptor [2]) was > 25 µM.
